Results: patent US8114638B2, “Arabinitol dehydrogenase from Neurospora crassa” (The Board of Trustees of the University of Illinois, priority 2007, dated 2012)
Like-named read-outs stand apart in the source and are kept apart here. Marks after values point to notes of the source that are not given here.

What was measured:
N. crassa LAD [1] = target: T1, N. crassa LAD (Neurospora crassa, UniProt Q7SI09); conditions: for % Activity: relative to L-arabinitol = 100, 50 mM Tris pH 8.0, saturated NAD+
Description: (§1) Initial rates were determined using a Varian Cary 100 Bio UV-visible spectrophotometer (Varian) at 25° C. in 50 mM Tris (pH 8.0). […] Kinetic measurements with substrate L-arabinitol and cofactor NAD^+ were taken in a 5-by-5 matrix format, with substrate and cofactor concentrations varied from below their Km to 10-fold higher than their Km. The kinetic data were analyzed with a modified version of Cleland's program (Cleland, W. W. (1979) Statistical analysis of enzyme kinetic data, Methods Enzymol 63, 103-138.). Vmax and Km for both L-arabinitol and NAD^+ were obtained by fitting the data to a sequential ordered mechanism with NAD^+ binding first, based on the proposed mechanism for sorbitol dehydrogenase (Lindstad et al. (1992) The kinetic mechanism of sheep liver sorbitol dehydrogenase, Eur J Biochem 210, 641-647.) v=VmaxAB/(KiaKB+KAB+KBA+AB) (EQ. 1)
where v is the initial velocity, Vmax is the maximum velocity, KA and KB are the Michaelis-Menten constants for NAD+ and L-arabinitol, respectively, A and B are the concentrations of NAD+ and L-arabinitol, respectively, and Kia is the dissociation constant for NAD+.
Kinetics. The data were used to calculate the kinetic constants for various substrates by fitting the Michaelis-Menten equation using Origin 5.0. […] The data represent averages of assays performed in duplicate or triplicate on two separate occasions.

N. crassa LAD [2] = target: T1, N. crassa LAD; test: Cofactor specificity of N. crassa LAD by HPLC; type: biochemical; design: GST (glutathione S-transferase), with thrombin cleavage site (N, cleaved yes); made in house; host or cells: Escherichia coli BL21(DE3), vector pGEX-4T-3 (pGEX-lad1); conditions: 1 mM NAD(P)+, 25 mM L-arabinitol, 50 mM Tris pH 8.0, 20 min at 37° C., UV 340 nm
Description: The cofactor specificity of N. crassa LAD was examined by HPLC. The separation of NAD+, NADP+, NADH, and NADPH was carried out using standard methods. No discernible cross-contamination of oxidized cofactors was observed. 20 μL reaction mixtures consisting of equal parts of 1 mM NAD(P)+ and 25 mM L-arabinitol in 50 mM Tris (pH 8.0) were set up, and following addition of approximately 1 μg of enzyme, the reaction was allowed to proceed for 20 min at 37° C. […] This indicated the strong preference for NAD+ as the cofactor of N. crassa LAD.
HPLC analysis. The enzyme (1 μg) was incubated in a mixture of buffer and 25 mM L-arabinitol with 1 mM NAD(P)+ at 37° C. for 20 min. The sample was eluted on a Zorbax 3.0×150 mm C-18 (3.5 μm) column with a UV detector (Agilent 1100 series). The eluent consisted of two components: 0.1 M KH2PO4 containing 5 mM tetrabutylammonium hydrogen sulfate (pH 5.5) (buffer A) and 100% methanol (buffer B). The most suitable gradient was an initial isocratic step for 6 min at 93% buffer A, a gradient for 5 min from 7 to 30% buffer B, and a final isocratic step for 5 min at 30% buffer B.

[3] = Kinetic parameters of LAD from various source organisms; type: biochemical; conditions: greater
Description: as §1

[4] = LADs of other organisms, from references, cited from earlier work
[5] = 4° C. and freeze-thawing; cited from earlier work
[6] = with indicated substrate, 25° C., 50 mM Tris pH 8.0, saturated NAD+ (2 mM)

## OC[C@@H](O)[C@@H](O)[C@@H](O)CO [Adonitol, adonitol]
N. crassa LAD [1]; read-out: Km (mean ± SD), with indicated substrate, 25° C., 50 mM Tris pH 8.0, saturated NAD+ (2 mM)
  Km: 35 ± 3 mM
N. crassa LAD [1]; 25° C.
  % Activity: 46%
N. crassa LAD [1]; [6]
  kcat (mean ± SD): 1,080 ± 30 min^−1

## OC[C@@H](O)C(O)[C@H](O)CO [D-Arabinitol, D-arabinitol]
N. crassa LAD [1]
  activity as substrate or cofactor of N. crassa LAD (in words): No activity was observed
N. crassa LAD [1]; 25° C.
  % Activity: 0%

## OC[C@@H](O)[C@@H](O)[C@H](O)[C@H](O)CO [D-Mannitol, D-mannitol]
N. crassa LAD [1]
  activity as substrate or cofactor of N. crassa LAD (in words): No activity was observed
N. crassa LAD [1]; 25° C.
  % Activity: 0%

## OC[C@@H](O)[C@@H](O)[C@H](O)[C@@H](O)CO [D-Sorbitol, D-sorbitol]
N. crassa LAD [1]
  activity as substrate or cofactor of N. crassa LAD (in words): No activity was observed
N. crassa LAD [1]; 25° C.
  % Activity: 0^c %

## OC[C@H](O)C(O)[C@@H](O)CO [L-Arabinitol, L-arabinitol]
N. crassa LAD [1]; read-out: Km value for substrate
  Km: 16 mM
N. crassa LAD [1]; 25° C.
  % Activity: 100%

## NC(=O)c1ccc[n+]([C@@H]2O[C@H](COP(=O)([O-])OP(=O)(O)OC[C@H]3O[C@@H](n4cnc5c(N)ncnc54)[C@H](O)[C@@H]3O)[C@@H](O)[C@H]2O)c1 [NAD, NAD+]
N. crassa LAD [1]; read-out: Km for L-arabinitol (mean ± SD), with indicated coenzyme, 25° C., 50 mM Tris pH 8.0
  Km: 16 ± 3 mM
N. crassa LAD [1]; read-out: Km for NAD(P) (mean ± SD), 25° C., 50 mM Tris pH 8.0, substrate L-arabinitol
  Km: 0.174 mM
N. crassa LAD [1]; with indicated coenzyme, 25° C., 50 mM Tris pH 8.0, substrate L-arabinitol
  kcat (mean ± SD): 1,206 ± 54 min^−1
N. crassa LAD [2]
  reduced cofactor peak by HPLC (in words): a single peak (UV 340 nm) was observed that had the same retention time as authentic NADH

## NC(=O)c1ccc[n+]([C@@H]2O[C@H](COP(=O)([O-])OP(=O)(O)OC[C@H]3O[C@@H](n4cnc5c(N)ncnc54)[C@H](OP(=O)(O)O)[C@@H]3O)[C@@H](O)[C@H]2O)c1 [NADP, NADP+]
N. crassa LAD [1]; listed as NADP+
  activity as substrate or cofactor of N. crassa LAD (in words): small yet detectable activity
N. crassa LAD [1]; listed as NADP^+
  activity as substrate or cofactor of N. crassa LAD (in words): very low yet detectable activity
N. crassa LAD [2]
  reduced cofactor peak by HPLC (in words): a small yet detectable peak was observed with a retention time corresponding to an authentic sample of NADPH

## OC[C@@H](O)[C@H](O)[C@@H](O)CO [Xylitol, xylitol]
N. crassa LAD [1]; 25° C.
  % Activity: 4.9%
N. crassa LAD [1]; [6]
  kcat (mean ± SD): 970 ± 40 min⁻¹

## A. niger: L-arabinitol 4-dehydrogenase from Aspergillus niger (literature)
[3]
  specific activity relative to N. crassa LAD: about 3 fold
[4]
  Specific activity: 96 U/mg
[4]; read-out: Km,L-arabinitol
  Km: 89 mM
[4]; read-out: Km,NAD+
  Km: 0.05 mM
[5]
  stability of purified enzyme as reported (in words): highly unstable, with rapidly diminishing activity at 4° C., and complete loss of activity after freeze-thawing of the enzyme

## A. oryzae: L-arabinitol 4-dehydrogenase from Aspergillus oryzae (literature)
[4]
  Specific activity: 0.04 U/mg

## H. jecorina: L-arabinitol 4-dehydrogenase from Hypocrea jecorina (literature; two table lines from different references)
[4]
  kcat: 0.85 s⁻¹
[4]; read-out: Km,NAD+
  Km: 0.18 mM
